Data reported in PubChem BioAssay (NCI).
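A five-concentration, 48-hour dose response in 96-well plates underlies each endpoint, interpolated linearly between surrounding concentrations. TGI marks complete inhibition of growth.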

Key:
Experiment in all cases: DTP human tumour cell line panel, 48 h
T-47D breast = system: T-47D breast
RXF 393 renal = system: RXF 393 renal
A498 renal = system: A498 renal
M14 melanoma = system: M14 melanoma
NCI-H522 lung = system: NCI-H522 lung
SK-MEL-5 melanoma = system: SK-MEL-5 melanoma
SR leukemia = system: SR leukemia
PC-3 prostate = system: PC-3 prostate
U251 CNS = system: U251 CNS
SNB-19 CNS = system: SNB-19 CNS
HOP-62 NSCLC = system: HOP-62 NSCLC
KM12 colon = system: KM12 colon
SK-MEL-28 melanoma = system: SK-MEL-28 melanoma
HL-60(TB) leukemia = system: HL-60(TB) leukemia
MDA-MB-231 breast = system: MDA-MB-231 breast
SF-539 CNS = system: SF-539 CNS
EKVX NSCLC = system: EKVX NSCLC
MDA-N = system: MDA-N
HT29 colon = system: HT29 colon
A549 NSCLC = system: A549 NSCLC
ACHN renal = system: ACHN renal
COLO 205 colon = system: COLO 205 colon
HCT-15 colon = system: HCT-15 colon
HOP-92 NSCLC = system: HOP-92 NSCLC
OVCAR-4 ovarian = system: OVCAR-4 ovarian
SN12C renal = system: SN12C renal
SW-620 colon = system: SW-620 colon
K-562 leukemia = system: K-562 leukemia
CCRF-CEM leukemia = system: CCRF-CEM leukemia
BT-549 breast = system: BT-549 breast
UO-31 renal = system: UO-31 renal
OVCAR-3 ovarian = system: OVCAR-3 ovarian
NCI-H226 lung = system: NCI-H226 lung
MALME-3M melanoma = system: MALME-3M melanoma
HS 578T breast = system: HS 578T breast
RPMI-8226 leukemia = system: RPMI-8226 leukemia
SF-268 CNS = system: SF-268 CNS
LOX IMVI melanoma = system: LOX IMVI melanoma
SK-MEL-2 melanoma = system: SK-MEL-2 melanoma
DU-145 prostate = system: DU-145 prostate
IGROV1 ovarian = system: IGROV1 ovarian
SF-295 CNS = system: SF-295 CNS
NCI/ADR-RES ovarian = system: NCI/ADR-RES ovarian
SK-OV-3 ovarian = system: SK-OV-3 ovarian
NCI-H460 lung = system: NCI-H460 lung
HCC-2998 colon = system: HCC-2998 colon
NCI-H23 lung = system: NCI-H23 lung
MCF7 breast = system: MCF7 breast
OVCAR-5 ovarian = system: OVCAR-5 ovarian
OVCAR-8 ovarian = system: OVCAR-8 ovarian
SNB-75 CNS = system: SNB-75 CNS
UACC-62 melanoma = system: UACC-62 melanoma
786-0 renal = system: 786-0 renal
MDA-MB-435 = system: MDA-MB-435
TK-10 renal = system: TK-10 renal
HCT-116 colon = system: HCT-116 colon
UACC-257 melanoma = system: UACC-257 melanoma
MOLT-4 leukemia = system: MOLT-4 leukemia
CAKI-1 renal = system: CAKI-1 renal
M19-MEL melanoma = system: M19-MEL melanoma
LXFL 529 NSCLC = system: LXFL 529 NSCLC
KM20L2 colon = system: KM20L2 colon
DMS 273 small cell lung = system: DMS 273 small cell lung
SNB-78 CNS = system: SNB-78 CNS
DLD-1 colon = system: DLD-1 colon
XF 498 CNS = system: XF 498 CNS

## CC(=O)C(CN1CCCCC1)C(c1ccccc1)c1c(O)c2ccccc2oc1=O (configuration not stated)
T-47D breast
  TGI: > 100 µM
RXF 393 renal
  TGI: > 100 µM
A498 renal
  TGI: > 100 µM
M14 melanoma
  TGI: > 100 µM
NCI-H522 lung
  TGI: > 100 µM
SK-MEL-5 melanoma
  TGI: > 100 µM
SR leukemia
  TGI: > 100 µM
PC-3 prostate
  TGI: > 100 µM
U251 CNS
  TGI: > 100 µM
SNB-19 CNS
  TGI: > 100 µM
HOP-62 NSCLC
  TGI: > 100 µM
KM12 colon
  TGI: > 100 µM
SK-MEL-28 melanoma
  TGI: > 100 µM
HL-60(TB) leukemia
  TGI: > 100 µM
MDA-MB-231 breast
  TGI: > 100 µM
SF-539 CNS
  TGI: > 100 µM
EKVX NSCLC
  TGI: > 100 µM
MDA-N
  TGI: > 100 µM
HT29 colon
  TGI: > 100 µM
A549 NSCLC
  TGI: > 100 µM
ACHN renal
  TGI: > 100 µM
COLO 205 colon
  TGI: > 100 µM
HCT-15 colon
  TGI: > 100 µM
HOP-92 NSCLC
  TGI: > 100 µM
OVCAR-4 ovarian
  TGI: > 100 µM
SN12C renal
  TGI: > 100 µM
SW-620 colon
  TGI: > 100 µM
K-562 leukemia
  TGI: > 100 µM
CCRF-CEM leukemia
  TGI: > 100 µM
BT-549 breast
  TGI: > 100 µM
UO-31 renal
  TGI: > 100 µM
OVCAR-3 ovarian
  TGI: > 100 µM
NCI-H226 lung
  TGI: > 100 µM
MALME-3M melanoma
  TGI: > 100 µM
HS 578T breast
  TGI: > 100 µM
RPMI-8226 leukemia
  TGI: > 100 µM
SF-268 CNS
  TGI: > 100 µM
LOX IMVI melanoma
  TGI: > 100 µM
SK-MEL-2 melanoma
  TGI: > 100 µM
DU-145 prostate
  TGI: > 100 µM
IGROV1 ovarian
  TGI: > 100 µM
SF-295 CNS
  TGI: > 100 µM
NCI/ADR-RES ovarian
  TGI: > 100 µM
SK-OV-3 ovarian
  TGI: > 100 µM
NCI-H460 lung
  TGI: > 100 µM
HCC-2998 colon
  TGI: > 100 µM
NCI-H23 lung
  TGI: > 100 µM
MCF7 breast
  TGI: > 100 µM
OVCAR-5 ovarian
  TGI: > 100 µM
OVCAR-8 ovarian
  TGI: > 100 µM
SNB-75 CNS
  TGI: > 100 µM
UACC-62 melanoma
  TGI: > 100 µM
786-0 renal
  TGI: > 100 µM
MDA-MB-435
  TGI: > 100 µM
TK-10 renal
  TGI: > 100 µM
HCT-116 colon
  TGI: > 100 µM
UACC-257 melanoma
  TGI: > 100 µM
MOLT-4 leukemia
  TGI: > 100 µM
CAKI-1 renal
  TGI: > 100 µM

## CC(C)C(Sc1nc(-c2ccccc2)c(-c2ccccc2)[nH]1)C(=O)NNC(=S)Nc1ccccc1 (configuration not stated)
A498 renal
  TGI: 44.5 µM
M14 melanoma
  TGI: 30.6 µM
NCI-H522 lung
  TGI: 21.5 µM
M19-MEL melanoma
  TGI: 33.4 µM
SK-MEL-5 melanoma
  TGI: 25.4 µM
SR leukemia
  TGI: 64.2 µM
U251 CNS
  TGI: 30 µM
SNB-19 CNS
  TGI: 58.6 µM
HOP-62 NSCLC
  TGI: 39.8 µM
KM12 colon
  TGI: 28.9 µM
SK-MEL-28 melanoma
  TGI: 41.1 µM
HL-60(TB) leukemia
  TGI: 40.1 µM
SF-539 CNS
  TGI: 35.8 µM
EKVX NSCLC
  TGI: 61.4 µM
HT29 colon
  TGI: 36.8 µM
LXFL 529 NSCLC
  TGI: 33.8 µM
KM20L2 colon
  TGI: 37.6 µM
A549 NSCLC
  TGI: 60.9 µM
ACHN renal
  TGI: 87 µM
COLO 205 colon
  TGI: 35.9 µM
DMS 273 small cell lung
  TGI: 34.8 µM
HCT-15 colon
  TGI: 33.8 µM
HOP-92 NSCLC
  TGI: 34.3 µM
OVCAR-4 ovarian
  TGI: 79.2 µM
SN12C renal
  TGI: 33.8 µM
SW-620 colon
  TGI: 33.1 µM
SNB-78 CNS
  TGI: 79.6 µM
CCRF-CEM leukemia
  TGI: 38 µM
UO-31 renal
  TGI: 35.8 µM
OVCAR-3 ovarian
  TGI: 29 µM
NCI-H226 lung
  TGI: 37.2 µM
MALME-3M melanoma
  TGI: 33.3 µM
DLD-1 colon
  TGI: 52 µM
RPMI-8226 leukemia
  TGI: 39.6 µM
SF-268 CNS
  TGI: 46.5 µM
LOX IMVI melanoma
  TGI: 29.3 µM
SK-MEL-2 melanoma
  TGI: 36.6 µM
IGROV1 ovarian
  TGI: 35.7 µM
SF-295 CNS
  TGI: 35.5 µM
SK-OV-3 ovarian
  TGI: 45.3 µM
NCI-H460 lung
  TGI: 33.9 µM
HCC-2998 colon
  TGI: 17.6 µM
NCI-H23 lung
  TGI: 37.2 µM
OVCAR-5 ovarian
  TGI: 32.6 µM
OVCAR-8 ovarian
  TGI: > 100 µM
SNB-75 CNS
  TGI: 53.6 µM
XF 498 CNS
  TGI: 32.7 µM
UACC-62 melanoma
  TGI: 12.4 µM
786-0 renal
  TGI: 35.8 µM
TK-10 renal
  TGI: > 100 µM
HCT-116 colon
  TGI: 42.2 µM
UACC-257 melanoma
  TGI: 33.5 µM
MOLT-4 leukemia
  TGI: 33 µM
